Source: patent publication US11110070B2 (priority 2015, dated 2021)
“Also recorded” adds a separate entry of the source. Like-named read-outs stand apart in the source and are kept apart here.

What was measured:
chronic PTSD = settings: intravenous infusion; compared with midazolam; cited from earlier work
129S6/SvEvTac mice [1] = assay: Forced swim test (FST) in social defeat (SD) model; format: in vivo
Procedure: Experiment 1 (Pre-ketamine in social defeat (SD)): At 8 weeks of age, a single injection of saline (0.9% NaCl) or ketamine (K) (10, 30, or 90 mg kg^−1) (Ketaset III, Ketamine HCl, Fort Dodge Animal Health, Forth Dodge, Iowa) was administered. Ketamine was prepared in physiological saline and all injections were administered intraperitoneally (i.p.) in volumes of 0.1 cc per […]. […] At 9 weeks of age, 1 week following this injection, SD was started.
24 h after the last bout of SD, a single injection of saline or ketamine (30 mg kg^−1) was administered (mice were 11 weeks old). The forced swim test (PST) was administered 2 h following the injection.
Experiment 3 (Pre-fluoxetine in SD): At 6 weeks of age, fluoxetine hydrochloride (Fix) (BioTrend Chemicals AG, B6197) was administered in the drinking water (18 mg kg^−1/day) for 3 weeks before the start of SD. Starting at 9 weeks of age, SD was then administered for 2 weeks without vehicle or Flx in the drinking water.
Adult aggressor CD-1 male mice were single-housed in Macrolon® polycarbonate resin cages (15.25 in×7.8 in×9.5 in) (Animal Care Systems, Inc., Centennial, Colo.). Male 129S6/SvEvTac mice (9 weeks of age) were subsequently placed into the resident. CD-1 mouse's cage. Three antagonistic encounters were allowed between the CD-1 mouse and the intruder. Each of these encounters typically lasted less than 5 min. Following the encounters, mice were separated by a polished stainless steel cage divider (Animal Care Systems, Inc., Centennial, Colo., P/N C79171), which allowed for olfactory and auditory communication, but limited visual or tactile contact. The partition was removed daily for 2 weeks and 3 antagonistic encounters were allowed between the mice each day. This procedure consistently yielded a submissive phenotype in the experimental intruder mice. Control (Ctrl) mice were group housed 4 to 5 per cage in Macrolon® polycarbonate resin cages without dividers.
The FST was administered as previously described (A11). Briefly, mice were placed into clear plastic buckets 20 cm in diameter and 23 cm deep filled ⅔ of the way with 22° C. water. Mice were videotaped, from the side for 6 min and were exposed to the swim test on 2 consecutive days. For the SI) experiments, scoring was performed using an automated Viewpoint Videotrack software package (http://www.viewpoint.fr/en/a/anxiety-and-depression). For the CORT experiments, automated scoring was done using the automated X'PERT EST software suite (Bioseb, Vitrolles, France). The dependent variable was immobility.

C57BL/6NTac mice = assay: NSF in CORT model; format: in vivo; settings: ketamine 10 and 90 mg kg^−1 before CORT
Procedure: Experiment 5 (Pre-ketamine and pre-fluoxetine corticosterone (CORT)): C57BL16NTac mice were injected with ketamine (10, 30, 90 mg kg^−1, i.p.) 1 week before the start of CORT, or administered fluoxetine (18 mg kg^−1 per day) in the drinking water for 3 weeks before the start of CORT. Ketamine was purchased from Merial (100 mg/ml stock solution). Fluoxetine hydrochloride (160 μg/mL, equivalent to 18 mg kg^−1 per day in the drinking water) was purchased from Anawa Trading (Zurich, Switzerland) and dissolved in 0.45% hydroxypropyl-β-cyclodextrin (β-CD) (Sigma-Aldrich, Saint-Quentin Fallavier, France) solution. Following ketamine or fluoxetine treatment, CORT was administered for 3 weeks in the drinking water. CORT (4-pregnen-11b-DIOL-3 20-DIONE 21-hemisuccinate) (35 μg/ml) from. Sigma Aldrich (Saint-Quentin Fallavier, France) was dissolved in vehicle (0.45% β-CD). Control animals received vehicle (0.45% β-CD) throughout the duration of the experiment. […]
Testing was performed as previously described (A13). […] The latency of the mice to begin eating was recorded. Immediately after the latency was recorded, the food pellet was removed from the arena. The mice were then placed into a cage and the amount of food consumed in 5 min was measured (home cage consumption), followed by an assessment of post-restriction weight. […]

C57BL/6J strain = settings: cited from earlier work
129S6/SvEvTac mice [2] = assay: FST after reinstatement; format: in vivo
Procedure: The FST was administered as previously described (Richardson-Jones et al., 2010; Brachman et al., 2016).

[3] = tested on: hypothalamic-pituitary-adrenal (HPA) axis; assay: Corticosterone enzyme immunoassay after a brief stressor (SD model); format: in vivo; settings: SD mice; ketamine 10, 30 or 90 mg kg^−1 before SD; vs Ctrl-Sal
Procedure: Mice were exposed to a minor stressor for 10 min and then returned to their home cages. Blood was collected from awake mice 70 min after the start of the stressor from the retro-orbital sinus using hematocrit tubes. Blood was then transferred to Eppendorf tubes pre-coated with 5 μl 0.5 M EDTA, placed on ice, and immediately spun down to obtain plasma for subsequent EIA. Plasma was stored at −80° C. until analysis. EIA was performed using a DetectX Corticosterone EIA Kit (#K014-H1, Arbor Assays).

[4] = 20 mg kg^−1 following the final SD session

**Q.** What does the source list for `CNC1(c2ccccc2Cl)CCCCC1=O` (racemic) [ketamine, (RS)-2-(2-chlorophenyl)-2-(methylamino)cyclohexanone]?
**A.** PTSD symptom severity (chronic PTSD): significant and rapid reduction in PTSD symptom severity; immobility time, day 2 of FST (129S6/SvEvTac mice [1]; Ctrl (group housed) mice, ketamine 30 mg kg^−1 single i.p. injection, vs Ctrl-Sal): equal levels of immobility time; also recorded: did not differ from each other; immobility time, day 2 of FST (129S6/SvEvTac mice [1]; Ctrl mice, ketamine 30 mg kg^−1 in the post-SD design): did not display different immobility time; immobility time in FST (129S6/SvEvTac mice [1]; SD mice, ketamine 10 mg kg^−1 before SD, vs SD-Sal): did not differ in immobility time; average immobility time for minutes 3 to 6 of FST (129S6/SvEvTac mice [1]; SD mice, ketamine 30 mg kg^−1 before SD, vs SD-Sal): less than the SD-Sal mice; also recorded: decreased immobility; immobility time, day 2 of FST (129S6/SvEvTac mice [1]; SD mice, ketamine 30 mg kg^−1 single injection 1 week before 2 weeks of SD, vs SD-Sal): significantly decreased immobility time; also recorded: significantly less immobility time; immobility time in FST (129S6/SvEvTac mice [1]; SD mice, ketamine 90 mg kg^−1 before SD, vs SD-Sal): did not differ in immobility time; persistence of ketamine-induced resilience post-injection (129S6/SvEvTac mice [1]; SD model): at least 3 weeks; dose found to be effective in the SD paradigm (129S6/SvEvTac mice [1]; doses tested 10, 30, 90 mg kg^−1): 30 mg/kg; immobility time, minutes 3 to 6 averaged (129S6/SvEvTac mice [1]; ketamine given after SD): did not decrease immobility time; latency to feed in NSF (C57BL/6NTac mice): prevented the chronic CORT-induced increase in latency to feed; also recorded: decreased the latency to feed; social avoidance (C57BL/6J strain; 20 mg kg^−1 administered before SD): did not attenuate social avoidance; anhedonia (C57BL/6J strain; [4]): not anhedonia; social avoidance (C57BL/6J strain; [4]): attenuated social avoidance; time immobile in the FST (129S6/SvEvTac mice [2]; ketamine 1 week prior to 1-shock reinstatement): equal levels of immobility; time immobile in the FST (129S6/SvEvTac mice [2]; ketamine 1 week prior to 3-shock reinstatement): equal levels of immobility in the FST; levels of CORT following a brief stressor [3]: did not differ from Ctrl-Sal mice
